From publication PMC5515844, “A new Prenylated Flavonoid induces G0/G1 arrest and apoptosis through p38/JNK MAPK pathways in Human Hepatocellular Carcinoma cells” (Scientific Reports, 2017)

tested on: HepG2; assay: MTT cytotoxicity assay; format: cell-based, human; conditions: HepG2, MTT, pretreated with 10 μM inhibitor 1 h, then 10 μM daphnegiravone D 48 h
Description: (§1) HepG2 and Hep3B (human hepatoma cells), Bcap37 and MCF-7 (human breast cancer cells), TE-1 (human esophageal cancer cells), A549 (human lung carcinoma cells), U251 and U87 (human glioma cells), were cultured in Dulbecco’s modified Eagle’s medium (DMEM) supplemented with 10% fetal bovine serum (FBS) and 1% penicillin/streptomycin (10000 U/mL penicillin, 10000 μg/ml streptomycin). SH-SY5Y (human neuroblastoma cells), LO2 (human normal liver cell) were grown in RPMI 1640 containing 10% FBS and 100 µg/ml penicillin, 100 µg/ml streptomycin. HepG2, Hep3B, MCF-7, TE-1, A549, U87, U251 and SHSY5Y cells were obtained from the American Type Culture Collection (Manassas, VA, USA). Bcap37 and LO2 cells were purchased from the Cell Bank of Chinese Academy of Sciences (Shanghai, China). All cells were incubated in a humidified atmosphere containing 5% CO2 at 37 °C.
(§2) Cells seeded in 96-well plates with 5 × 10^3 cells/well were adhered overnight and incubated with vehicle control (DMSO) or diverse concentrations of compounds for 48 h. After treatment, 20 μL of MTT (5 mg/mL) was added to each well and incubated for another 4 h at 37 °C. Then, 150 μL of DMSO/well was appended after removed the supernatant to dissolve the formed purple formazan crystals and the color absorbance was measured at 490 nm using a microplate reader (Molecular Devices, Thermo, CA, USA). The inhibition rate (%) was calculated as (A490(control) − A490(drug groups))/(A490(control) − A490(blank)) × 100 and the value of IC50 (the concentration that caused 50% inhibition of cell viability) was determined using SPSS 20.0. This experiment was measured in triplicate, independently.

Row | Compound | effect of inhibitor on the reduction of cell viability by daphnegiravone D
1 | C[S+]([O-])c1ccc(-c2nc(-c3ccncc3)c(-c3ccc(F)cc3)[nH]2)cc1 (centres unmarked) [SB203580, reference compound] | abolished
2 | Oc1c2ccccc2c2c3c(cccc13)N=N2 [SP600125, reference compound] | exacerbated

same assay, conditions: Homo sapiens, HepG2; MTT, 48 h, mean ± SD

Row | Compound | IC50
3 | COc1c(-c2ccc(O)c(O)c2)oc2c(CC=C(C)C)c(O)c(CC=C(C)C)c(O)c2c1=O [Compound 2, broussoflavonol B] | 26.1 ± 1.89 µM
4 | CC(C)=CCc1c(-c2ccc(O)cc2O)oc2c3c(cc(O)c2c1=O)OC(C)(C)C=C3 [Compound 3, morusin] | 9.76 ± 0.94 µM
5 | COc1c(-c2cc(O)c3c(c2)C=CC(C)(C)O3)oc2c(CC=C(C)C)c(O)cc(O)c2c1=O [Compound 4, daphnegiravone A] | 36.7 ± 2.21 µM
6 | CC(C)=CCc1cc([C@@H]2CC(=O)c3ccc(O)cc3O2)c2c(c1O)OC(C)(C)CC2 [Compound 5, daphnegiravone C] | > 100 µM
7 | O=c1[nH]cc(F)c(=O)[nH]1 [Compound 5FU, 5-Fluorouracil, reference compound] | 47.1 ± 3.68 µM

tested on: Hep3B; assay: MTT cytotoxicity assay; format: cell-based, human; conditions: Homo sapiens, 48 h, mean ± SD
Description: as §1, §2

Row | Compound | IC50
8 | COc1c(-c2ccc(O)c(O)c2)oc2c(CC=C(C)C)c(O)c(CC=C(C)C)c(O)c2c1=O [Compound 2, broussoflavonol B] | 14.2 ± 1.56 µM
9 | CC(C)=CCc1c(-c2ccc(O)cc2O)oc2c3c(cc(O)c2c1=O)OC(C)(C)C=C3 [Compound 3, morusin] | 14.2 ± 1.87 µM
10 | COc1c(-c2cc(O)c3c(c2)C=CC(C)(C)O3)oc2c(CC=C(C)C)c(O)cc(O)c2c1=O [Compound 4, daphnegiravone A] | > 100 µM
11 | CC(C)=CCc1cc([C@@H]2CC(=O)c3ccc(O)cc3O2)c2c(c1O)OC(C)(C)CC2 [Compound 5, daphnegiravone C] | 55.4 ± 3.97 µM
12 | O=c1[nH]cc(F)c(=O)[nH]1 [Compound 5FU, 5-Fluorouracil, reference compound] | 10.4 ± 1.44 µM

same assay, conditions: pretreated with 10 μM inhibitor 1 h, then 2 μM daphnegiravone D 48 h

Row | Compound | effect of inhibitor on the reduction of cell viability by daphnegiravone D
13 | C[S+]([O-])c1ccc(-c2nc(-c3ccncc3)c(-c3ccc(F)cc3)[nH]2)cc1 (centres unmarked) [SB203580, reference compound] | abolished
14 | Oc1c2ccccc2c2c3c(cccc13)N=N2 [SP600125, reference compound] | exacerbated

tested on: Bcap37; assay: MTT cytotoxicity assay; format: cell-based; conditions: Homo sapiens, 48 h, mean ± SD
Description: as §1, §2

Row | Compound | IC50
15 | COc1c(-c2ccc(O)c(O)c2)oc2c(CC=C(C)C)c(O)c(CC=C(C)C)c(O)c2c1=O [Compound 2, broussoflavonol B] | 42.4 ± 4.83 µM
16 | CC(C)=CCc1c(-c2ccc(O)cc2O)oc2c3c(cc(O)c2c1=O)OC(C)(C)C=C3 [Compound 3, morusin] | 31 ± 2.34 µM
17 | COc1c(-c2cc(O)c3c(c2)C=CC(C)(C)O3)oc2c(CC=C(C)C)c(O)cc(O)c2c1=O [Compound 4, daphnegiravone A] | > 100 µM
18 | CC(C)=CCc1cc([C@@H]2CC(=O)c3ccc(O)cc3O2)c2c(c1O)OC(C)(C)CC2 [Compound 5, daphnegiravone C] | > 100 µM
19 | O=c1[nH]cc(F)c(=O)[nH]1 [Compound 5FU, 5-Fluorouracil, reference compound] | 44.1 ± 3.82 µM

tested on: TE-1; assay: MTT cytotoxicity assay; format: cell-based; conditions: Homo sapiens, 48 h, mean ± SD
Description: as §1, §2

Row | Compound | IC50
20 | COc1c(-c2ccc(O)c(O)c2)oc2c(CC=C(C)C)c(O)c(CC=C(C)C)c(O)c2c1=O [Compound 2, broussoflavonol B] | 20 ± 2.3 µM
21 | CC(C)=CCc1c(-c2ccc(O)cc2O)oc2c3c(cc(O)c2c1=O)OC(C)(C)C=C3 [Compound 3, morusin] | 22.8 ± 1.79 µM
22 | COc1c(-c2cc(O)c3c(c2)C=CC(C)(C)O3)oc2c(CC=C(C)C)c(O)cc(O)c2c1=O [Compound 4, daphnegiravone A] | > 100 µM
23 | CC(C)=CCc1cc([C@@H]2CC(=O)c3ccc(O)cc3O2)c2c(c1O)OC(C)(C)CC2 [Compound 5, daphnegiravone C] | > 100 µM
24 | O=c1[nH]cc(F)c(=O)[nH]1 [Compound 5FU, 5-Fluorouracil, reference compound] | 26.7 ± 2.01 µM

tested on: U251; assay: MTT cytotoxicity assay; format: cell-based; conditions: Homo sapiens, U-251, 48 h, mean ± SD
Description: as §1, §2

Row | Compound | IC50
25 | COc1c(-c2ccc(O)c(O)c2)oc2c(CC=C(C)C)c(O)c(CC=C(C)C)c(O)c2c1=O [Compound 2, broussoflavonol B] | 19.8 ± 1.53 µM
26 | CC(C)=CCc1c(-c2ccc(O)cc2O)oc2c3c(cc(O)c2c1=O)OC(C)(C)C=C3 [Compound 3, morusin] | 17.1 ± 2.22 µM
27 | COc1c(-c2cc(O)c3c(c2)C=CC(C)(C)O3)oc2c(CC=C(C)C)c(O)cc(O)c2c1=O [Compound 4, daphnegiravone A] | > 100 µM
28 | CC(C)=CCc1cc([C@@H]2CC(=O)c3ccc(O)cc3O2)c2c(c1O)OC(C)(C)CC2 [Compound 5, daphnegiravone C] | > 100 µM
29 | O=c1[nH]cc(F)c(=O)[nH]1 [Compound 5FU, 5-Fluorouracil, reference compound] | 42.6 ± 3.49 µM

tested on: A549; assay: MTT cytotoxicity assay; format: cell-based; conditions: Homo sapiens, 48 h, mean ± SD
Description: as §1, §2

Row | Compound | IC50
30 | COc1c(-c2ccc(O)c(O)c2)oc2c(CC=C(C)C)c(O)c(CC=C(C)C)c(O)c2c1=O [Compound 2, broussoflavonol B] | 15 ± 1.21 µM
31 | CC(C)=CCc1c(-c2ccc(O)cc2O)oc2c3c(cc(O)c2c1=O)OC(C)(C)C=C3 [Compound 3, morusin] | 23.9 ± 1.97 µM
32 | COc1c(-c2cc(O)c3c(c2)C=CC(C)(C)O3)oc2c(CC=C(C)C)c(O)cc(O)c2c1=O [Compound 4, daphnegiravone A] | 66.8 ± 4.3 µM
33 | CC(C)=CCc1cc([C@@H]2CC(=O)c3ccc(O)cc3O2)c2c(c1O)OC(C)(C)CC2 [Compound 5, daphnegiravone C] | 20 ± 1.31 µM
34 | O=c1[nH]cc(F)c(=O)[nH]1 [Compound 5FU, 5-Fluorouracil, reference compound] | 31.9 ± 2.74 µM

tested on: SH-SY5Y; assay: MTT cytotoxicity assay; format: cell-based; conditions: Homo sapiens, 48 h, mean ± SD
Description: as §1, §2

Row | Compound | IC50
35 | COc1c(-c2ccc(O)c(O)c2)oc2c(CC=C(C)C)c(O)c(CC=C(C)C)c(O)c2c1=O [Compound 2, broussoflavonol B] | 13.5 ± 0.95 µM
36 | CC(C)=CCc1c(-c2ccc(O)cc2O)oc2c3c(cc(O)c2c1=O)OC(C)(C)C=C3 [Compound 3, morusin] | 45.4 ± 3.24 µM
37 | COc1c(-c2cc(O)c3c(c2)C=CC(C)(C)O3)oc2c(CC=C(C)C)c(O)cc(O)c2c1=O [Compound 4, daphnegiravone A] | 74.4 ± 4.87 µM
38 | CC(C)=CCc1cc([C@@H]2CC(=O)c3ccc(O)cc3O2)c2c(c1O)OC(C)(C)CC2 [Compound 5, daphnegiravone C] | 54.8 ± 3.72 µM
39 | O=c1[nH]cc(F)c(=O)[nH]1 [Compound 5FU, 5-Fluorouracil, reference compound] | 18.6 ± 1.38 µM

tested on: U87; assay: MTT cytotoxicity assay; format: cell-based; conditions: Homo sapiens, U-87 MG, 48 h, mean ± SD
Description: as §1, §2

Row | Compound | IC50
40 | COc1c(-c2ccc(O)c(O)c2)oc2c(CC=C(C)C)c(O)c(CC=C(C)C)c(O)c2c1=O [Compound 2, broussoflavonol B] | 20.3 ± 2.08 µM
41 | CC(C)=CCc1c(-c2ccc(O)cc2O)oc2c3c(cc(O)c2c1=O)OC(C)(C)C=C3 [Compound 3, morusin] | 23.4 ± 2.79 µM
42 | COc1c(-c2cc(O)c3c(c2)C=CC(C)(C)O3)oc2c(CC=C(C)C)c(O)cc(O)c2c1=O [Compound 4, daphnegiravone A] | 71 ± 4.36 µM
43 | CC(C)=CCc1cc([C@@H]2CC(=O)c3ccc(O)cc3O2)c2c(c1O)OC(C)(C)CC2 [Compound 5, daphnegiravone C] | 49.9 ± 3.87 µM
44 | O=c1[nH]cc(F)c(=O)[nH]1 [Compound 5FU, 5-Fluorouracil, reference compound] | 20.2 ± 1.98 µM

tested on: MCF-7; assay: MTT cytotoxicity assay; format: cell-based; conditions: Homo sapiens, MCF7, 48 h, mean ± SD
Description: as §1, §2

Row | Compound | IC50
45 | COc1c(-c2ccc(O)c(O)c2)oc2c(CC=C(C)C)c(O)c(CC=C(C)C)c(O)c2c1=O [Compound 2, broussoflavonol B] | 19.2 ± 1.76 µM
46 | CC(C)=CCc1c(-c2ccc(O)cc2O)oc2c3c(cc(O)c2c1=O)OC(C)(C)C=C3 [Compound 3, morusin] | 13.5 ± 2.51 µM
47 | COc1c(-c2cc(O)c3c(c2)C=CC(C)(C)O3)oc2c(CC=C(C)C)c(O)cc(O)c2c1=O [Compound 4, daphnegiravone A] | > 100 µM
48 | CC(C)=CCc1cc([C@@H]2CC(=O)c3ccc(O)cc3O2)c2c(c1O)OC(C)(C)CC2 [Compound 5, daphnegiravone C] | > 100 µM
49 | O=c1[nH]cc(F)c(=O)[nH]1 [Compound 5FU, 5-Fluorouracil, reference compound] | 42.3 ± 3.03 µM

tested on: nine human cancer cell lines and one normal hepatic cell line; assay: MTT cytotoxicity assay, summary over the cell line panel; format: cell-based; conditions: most cancer cell lines, read-out: IC50 values against most cancer cell lines
Description: as §1, §2

Row | Compound | IC50
50 | COc1c(-c2ccc(O)c(O)c2)oc2c(CC=C(C)C)c(O)c(CC=C(C)C)c(O)c2c1=O [Compound 2, broussoflavonol B] | ~20 µM
51 | CC(C)=CCc1c(-c2ccc(O)cc2O)oc2c3c(cc(O)c2c1=O)OC(C)(C)C=C3 [Compound 3, morusin] | ~20 µM

same assay, conditions: most cell lines, read-out: IC50 values against most cell lines

Row | Compound | IC50
52 | COc1c(-c2cc(O)c3c(c2)C=CC(C)(C)O3)oc2c(CC=C(C)C)c(O)cc(O)c2c1=O [Compound 4, daphnegiravone A] | > 50 µM
53 | CC(C)=CCc1cc([C@@H]2CC(=O)c3ccc(O)cc3O2)c2c(c1O)OC(C)(C)CC2 [Compound 5, daphnegiravone C] | > 50 µM

tested on: HepG2 cells; assay: not given; set-up: method as in PMID 25446044; conditions: cited from earlier work

Row | Compound | inhibitory effect on HepG2 cells
54 | Kurzphenol C | weak inhibitory effect

tested on: LO2; assay: MTT cytotoxicity assay, normal hepatic cells; format: cell-based; conditions: Homo sapiens, L02, 48 h, mean ± SD
Description: as §1, §2

Row | Compound | IC50
55 | COc1c(-c2ccc(O)c(O)c2)oc2c(CC=C(C)C)c(O)c(CC=C(C)C)c(O)c2c1=O [Compound 2, broussoflavonol B] | 22.4 ± 2.63 µM
56 | CC(C)=CCc1c(-c2ccc(O)cc2O)oc2c3c(cc(O)c2c1=O)OC(C)(C)C=C3 [Compound 3, morusin] | 28.2 ± 3.14 µM
57 | COc1c(-c2cc(O)c3c(c2)C=CC(C)(C)O3)oc2c(CC=C(C)C)c(O)cc(O)c2c1=O [Compound 4, daphnegiravone A] | > 100 µM
58 | CC(C)=CCc1cc([C@@H]2CC(=O)c3ccc(O)cc3O2)c2c(c1O)OC(C)(C)CC2 [Compound 5, daphnegiravone C] | > 100 µM
59 | O=c1[nH]cc(F)c(=O)[nH]1 [Compound 5FU, 5-Fluorouracil, reference compound] | 31.9 ± 3.78 µM
